{"source": "PubChem BioAssay (NCI)", "experiment_in_all_cases": "NCI tumour cell line growth inhibition, 48 h", "key": {"[1]": {"test_system": "SNB-19 CNS"}, "[2]": {"test_system": "U251 CNS"}, "[3]": {"test_system": "DU-145 prostate"}, "[4]": {"test_system": "LOX IMVI melanoma"}, "[5]": {"test_system": "MDA-MB-231 breast"}, "[6]": {"test_system": "OVCAR-5 ovarian"}, "[7]": {"test_system": "NCI-H23 lung"}, "[8]": {"test_system": "SNB-75 CNS"}, "[9]": {"test_system": "UO-31 renal"}, "[10]": {"test_system": "CCRF-CEM leukemia"}, "[11]": {"test_system": "SK-MEL-2 melanoma"}, "[12]": {"test_system": "EKVX NSCLC"}, "[13]": {"test_system": "MOLT-4 leukemia"}, "[14]": {"test_system": "SK-MEL-28 melanoma"}, "[15]": {"test_system": "HCT-15 colon"}, "[16]": {"test_system": "T-47D breast"}, "[17]": {"test_system": "M14 melanoma"}, "[18]": {"test_system": "HCC-2998 colon"}, "[19]": {"test_system": "HCT-116 colon"}, "[20]": {"test_system": "RPMI-8226 leukemia"}, "[21]": {"test_system": "SR leukemia"}, "[22]": {"test_system": "HOP-92 NSCLC"}, "[23]": {"test_system": "OVCAR-4 ovarian"}, "[24]": {"test_system": "IGROV1 ovarian"}, "[25]": {"test_system": "786-0 renal"}, "[26]": {"test_system": "KM12 colon"}, "[27]": {"test_system": "NCI-H460 lung"}, "[28]": {"test_system": "NCI-H226 lung"}}, "note": "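Method: 48-hour compound exposure of cells in 96-well plates, five concentrations, linear interpolation of endpoints. GI50 marks 50% less growth. TGI is the concentration that stops growth completely.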", "data": [{"compound": "CC/C(=C(/c1ccc(O)cc1)c1ccc(OCCN2CCCCC2)cc1)c1ccc(OC)cc1", "values": [{"measurement": "TGI", "setting": "[1]", "value": 4.62, "unit": "µM"}, {"measurement": "GI50", "setting": "[2]", "value": 1.85, "unit": "µM"}, {"measurement": "TGI", "setting": "[2]", "value": 4.22, "unit": "µM"}, {"measurement": "GI50", "setting": "[3]", "value": 4.52, "unit": "µM"}, {"measurement": "TGI", "setting": "[3]", "value": 18.1, "unit": "µM"}, {"measurement": "GI50", "setting": "[4]", "value": 1.63, "unit": "µM"}, {"measurement": "TGI", "setting": "[4]", "value": 3.27, "unit": "µM"}, {"measurement": "GI50", "setting": "[5]", "value": 1.61, "unit": "µM"}, {"measurement": "TGI", "setting": "[5]", "value": 3.84, "unit": "µM"}, {"measurement": "GI50", "setting": "[6]", "value": 3.25, "unit": "µM"}, {"measurement": "TGI", "setting": "[6]", "value": 14.8, "unit": "µM"}, {"measurement": "GI50", "setting": "[7]", "value": 10.1, "unit": "µM"}, {"measurement": "TGI", "setting": "[7]", "value": 23.4, "unit": "µM"}, {"measurement": "GI50", "setting": "[8]", "value": 10.4, "unit": "µM"}, {"measurement": "TGI", "setting": "[8]", "value": 23.3, "unit": "µM"}, {"measurement": "GI50", "setting": "[9]", "value": 1.13, "unit": "µM"}, {"measurement": "TGI", "setting": "[9]", "value": 2.49, "unit": "µM"}, {"measurement": "GI50", "setting": "[10]", "value": 0.513, "unit": "µM"}, {"measurement": "TGI", "setting": "[10]", "value": 5.09, "unit": "µM"}, {"measurement": "GI50", "setting": "[11]", "value": 2.04, "unit": "µM"}, {"measurement": "TGI", "setting": "[11]", "value": 4.83, "unit": "µM"}, {"measurement": "GI50", "setting": "[12]", "value": 4.05, "unit": "µM"}, {"measurement": "TGI", "setting": "[12]", "value": 18.4, "unit": "µM"}, {"measurement": "GI50", "setting": "[13]", "value": 1.6, "unit": "µM"}, {"measurement": "TGI", "setting": "[13]", "value": 5.71, "unit": "µM"}, {"measurement": "GI50", "setting": "[14]", "value": 1.78, "unit": "µM"}, {"measurement": "TGI", "setting": "[14]", "value": 3.48, "unit": "µM"}, {"measurement": "GI50", "setting": "[15]", "value": 1.45, "unit": "µM"}, {"measurement": "TGI", "setting": "[15]", "value": 5.46, "unit": "µM"}, {"measurement": "GI50", "setting": "[16]", "value": 1.01, "unit": "µM"}, {"measurement": "TGI", "setting": "[16]", "value": 3, "unit": "µM"}, {"measurement": "GI50", "setting": "[17]", "value": 1.73, "unit": "µM"}, {"measurement": "TGI", "setting": "[17]", "value": 3.38, "unit": "µM"}, {"measurement": "GI50", "setting": "[18]", "value": 2.9, "unit": "µM"}, {"measurement": "TGI", "setting": "[18]", "value": 9.13, "unit": "µM"}, {"measurement": "GI50", "setting": "[19]", "value": 1.15, "unit": "µM"}, {"measurement": "TGI", "setting": "[19]", "value": 2.51, "unit": "µM"}, {"measurement": "GI50", "setting": "[20]", "value": 1.24, "unit": "µM"}, {"measurement": "TGI", "setting": "[20]", "value": 3.61, "unit": "µM"}, {"measurement": "GI50", "setting": "[21]", "value": 0.215, "unit": "µM"}, {"measurement": "TGI", "setting": "[21]", "value": 0.649, "unit": "µM"}, {"measurement": "GI50", "setting": "[22]", "value": 0.665, "unit": "µM"}, {"measurement": "TGI", "setting": "[22]", "value": 2.38, "unit": "µM"}, {"measurement": "GI50", "setting": "[23]", "value": 1.88, "unit": "µM"}, {"measurement": "TGI", "setting": "[23]", "value": 5.99, "unit": "µM"}, {"measurement": "GI50", "setting": "[24]", "value": 2.5, "unit": "µM"}, {"measurement": "TGI", "setting": "[24]", "value": 8.95, "unit": "µM"}, {"measurement": "GI50", "setting": "[25]", "value": 1.28, "unit": "µM"}, {"measurement": "TGI", "setting": "[25]", "value": 2.74, "unit": "µM"}, {"measurement": "GI50", "setting": "[26]", "value": 2.63, "unit": "µM"}, {"measurement": "TGI", "setting": "[26]", "value": 12.2, "unit": "µM"}, {"measurement": "GI50", "setting": "[27]", "value": 2.17, "unit": "µM"}, {"measurement": "TGI", "setting": "[27]", "value": 4.72, "unit": "µM"}, {"measurement": "GI50", "setting": "[28]", "value": 16.8, "unit": "µM"}, {"measurement": "TGI", "setting": "[28]", "value": 37.9, "unit": "µM"}]}]}
